The record followed here is ChEMBL document CHEMBL1201862, “PubChem BioAssay data set” (2004).

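Interpolation was linear, between the two tested concentrations surrounding the appropriate level; five concentrations were tested over 48 hours in 96-well plates. Here, GI50 denotes the concentration required for 50% inhibition of growth.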 Active and inactive are the calls of the source. Cut-off read from the data, not from the text of the source: active = GI50 up to about 1.1 µM and inactive = higher.

Test systems include HL-60; LOX IMVI; SNB-75; MCF7; NCI-H460; SN12C; HCC 2998; SF-539; SR; SK-MEL-5; A549; RXF 393; UO-31; OVCAR-3; SK-MEL-2; SW-620; EKVX; Hs-578T; NCI/ADR-RES; 786-0.
What all share (experiment): DTP human tumour cell line panel, 48 h

One may read the GI50 as the concentration at which growth is held to half of that of the control. For `COC1=CC2(C=CC1=O)CCNC1=C2C(=O)c2nc[nH]c2C1=O` (stereo not given), the GI50 in the assay on HL-60, with LOX IMVI, in the assay with SNB-75, with MCF7, in the assay with NCI-H460 and in the assay with SN12C was > 100 µM (inactive) in each case. The GI50 in the assay on HCC 2998, in the assay on SF-539, in the assay on SR, with SK-MEL-5, with A549 and with RXF 393 was > 100 µM (inactive) throughout. For the same molecule, the GI50 in the assay with UO-31 is > 100 µM (inactive); in the assay with OVCAR-3 it was 41.8 µM (inactive); in the assay with SK-MEL-2 it was > 100 µM (inactive); in the assay on SW-620 it was > 100 µM (inactive); in the assay on EKVX, > 100 µM (inactive); in the assay with Hs-578T, > 100 µM (inactive). Moreover, the GI50 in the assay with NCI/ADR-RES and in the assay with 786-0 was > 100 µM (inactive) throughout.

In the case of `CN(C)c1ncnc2c1ncn2CCn1cnc2c(N(C)C)ncnc21`, the GI50 with HL-60, in the assay on LOX IMVI, with SNB-75, in the assay on MCF7, in the assay on NCI-H460 and in the assay on SN12C was > 100 µM (inactive) throughout. Further, the GI50 with HCC 2998 was > 100 µM (inactive); with SF-539 it was > 100 µM (inactive); with SR, 2.28 µM (inactive); with SK-MEL-5 it was > 100 µM (inactive); in the assay on A549, > 100 µM (inactive); with RXF 393 it was > 100 µM (inactive). Further, the GI50 in the assay on UO-31, with OVCAR-3, in the assay with SK-MEL-2, in the assay on SW-620, in the assay with EKVX and in the assay on Hs-578T was > 100 µM (inactive) throughout. Further, the GI50 in the assay on NCI/ADR-RES and with 786-0 was > 100 µM (inactive) each time.

As to `CCCCCCCCCCCCCCCC[N+](C)(C)Cc1ccc(F)cc1`, the GI50 was 0.184 µM (active) in the assay on HL-60; 1.47 µM (inactive) in the assay on LOX IMVI; 1.39 µM (inactive) with SNB-75; 1.61 µM (inactive) in the assay with MCF7; 1.44 µM (inactive) in the assay with NCI-H460; 1.62 µM (inactive) in the assay with SN12C. In addition, the GI50 is 1.47 µM (inactive) in the assay with HCC 2998; 1.29 µM (inactive) with SF-539; 1.54 µM (inactive) with SR; 1.75 µM (inactive) in the assay with SK-MEL-5; 2.67 µM (inactive) in the assay on A549; 1.11 µM (active) with RXF 393. In addition, the GI50 is 6.84 µM (inactive) with UO-31; 1.94 µM (inactive) in the assay on OVCAR-3; 1.62 µM (inactive) in the assay on SK-MEL-2; 1.7 µM (inactive) with SW-620; 2 µM (inactive) in the assay on EKVX; 1.89 µM (inactive) in the assay on Hs-578T. In addition, the GI50 in the assay with NCI/ADR-RES was 18.1 µM (inactive); with 786-0, 1.47 µM (inactive).

Turning to `CN1CCCC(OC(=O)c2cc3cc(CCl)ccc3oc2=O)C1` (stereo not given), the GI50 is 2.07 µM (inactive) with HL-60; 17 µM (inactive) with LOX IMVI; 22.2 µM (inactive) with SNB-75; 20.4 µM (inactive) with MCF7; 19.1 µM (inactive) with NCI-H460; 20.9 µM (inactive) in the assay with SN12C. Also, the GI50 in the assay on HCC 2998 was 18.3 µM (inactive); in the assay with SF-539, 27 µM (inactive); in the assay with SR, 21.9 µM (inactive); in the assay on SK-MEL-5, 17.3 µM (inactive); with A549, 29.8 µM (inactive); in the assay with RXF 393 it was 23.7 µM (inactive). Further, the GI50 in the assay on UO-31 is 15.8 µM (inactive); in the assay on OVCAR-3 it was 14.2 µM (inactive); with SK-MEL-2, 17.6 µM (inactive); in the assay with SW-620, 22.7 µM (inactive); with EKVX it was 31.2 µM (inactive); in the assay on Hs-578T, 21.9 µM (inactive). In addition, the GI50 in the assay with NCI/ADR-RES was 27.9 µM (inactive); with 786-0 it was 23.8 µM (inactive).
